PMC11231141, “Ube3a unsilencer for the potential treatment of Angelman syndrome” (Nature Communications, 2024)

Experiments:
[1] = cytotoxicity (% viable DAPI/NeuN neurons vs DMSO) in mouse primary neurons; format: cell-based; conditions: primary cortical neurons from E15.5 mouse embryos, mean ± SEM, n = 3
Method: (§1) Immunofluorescence for high-content imaging analysis was performed as previously described with slight modifications. Following drug treatment at DIV7, primary neurons were fixed at DIV10 with 4% paraformaldehyde in PBS at room temperature (RT) for 10 min. After three brief washes in PBS, neurons were permeabilized with PBS/1% Triton-X-100 at RT for 10 min, followed by blocking with PBS including 5% normal goat serum and 0.2% Triton-X-100 (NGST) at RT. […] All acquired images were analyzed by CellProfiler[48]. The mean GFP signal from each drug-treated well was normalized to the average mean GFP signal from DMSO-treated neurons. […] Fluorescent images were acquired using a Nikon Ti2 eclipse fluorescence microscope (Nikon Instruments Inc.) and analyzed using Nikon NIS-Elements software (Nikon Instruments Inc.). Antibody-enhanced UBE3A-YFP fluorescence intensities were determined from DAPI and NeuN double-positive neurons in drug-treated wells and normalized to neurons in DMSO-treated wells. The cytotoxicity of a compound was determined by calculating the percentage of neurons (DAPI and NeuN double-positive cells) alive in drug-treated wells compared to the DMSO-treated wells. For determining the effectiveness of unsilencing, the percent neurons expressing GFP signal in neurons (DAPI and NeuN double-positive cells) in drug-treated wells was thresholded such that the percent GFP positive neurons in DMSO-treated wells was set to ~5%. Concentrations where more than 10% of neurons were dead compared to DMSO-treated wells were manually removed and the last included data point was set as a maximum efficacy. Sigmoidal curve fitting for the dose-response analysis was performed using GraphPad Prism software version 8.0 (GraphPad Software).

[2] = system: Ube3a-ATS; test: quantitative RT-PCR of Ube3a-ATS in Ube3a m-/p+ primary neurons; format: cell-based, mouse; conditions: 72 h at DIV7, 0.3 µM topotecan, 1 µM (S)- or (R)-PHA533533, 0.1 µM 2, 0.1 µM 3, 0.3 µM (±)-4, 5 µM (S,R)-5
Method: Next, 1 ml of Neurobasal Plus medium (A3582901, ThermoFisher) containing 5% FBS (TMS-013-B; MilliporeSigma) was added to the cortical mixture to deactivate the papain and subsequently triturated. […] Isolated cortical neurons were plated onto poly-D-lysine coated 384-well plates at 2 × 10^4 cell/well for screening and dose-response assays, or 6-well plates at 1 × 10^6 cell/well for molecular and biochemical assays (western blot, ASO-dependent knock-down, and quantitative RT-PCR).

[3] = system: paternal UBE3A-YFP; test: paternal UBE3A-YFP unsilencing, high-content imaging in mouse primary neurons (Ube3a m+/pYFP); format: cell-based; conditions: for Emax / EC50: Mus musculus, 72 h, mean ± SEM; for Emax: Neuron, highest concentration with at least 90% neurons alive, read-out: EMAX (% patUBE3A-YFP+); for EC50: Primary neuron, n = 3; for capability to unsilence paternal Ube3a (analog test): mouse primary neurons, up to 5 μM
Method: We aimed to identify novel unsilencers of paternal Ube3a by employing a previously developed high-content small molecule screen. This screen was performed in primary neurons derived from knock-in mice harboring a yellow fluorescent protein (YFP) fused to the paternal allele of Ube3a[25], allowing for fluorescence-based identification of the paternal allele-specific expression of UBE3A-YFP (detected by a GFP antibody enhancement) (Fig. 1a and Supplementary Table 1). We screened >2800 compounds from a Pfizer chemogenetic library, which contains small molecules selected to cover a broad spectrum of pharmacological space. We screened small molecules at 1 μM concentration and used 0.3 μM topotecan, a topoisomerase inhibitor that can downregulate the Ube3a-ATS and unsilence the paternal Ube3a, as a positive control (Fig. 1b)[10]. Small molecules that increase the UBE3A-YFP signal represent putative paternal Ube3a unsilencers.
as §1

[4] = system: UBE3A protein; test: western blot of UBE3A protein in Ube3a m-/p+ primary neurons; format: cell-based, mouse; conditions: 72 h at DIV7, 0.3 µM topotecan, 1 µM (S)-PHA533533, 0.1 µM 3, 0.3 µM (±)-4
Method: 2’ MOE gapmer antisense oligonucleotides (ASOs) designed to target mouse Cdk2 sequence […], Cdk5 sequence […], Top1 sequence […], and scrambled […] sequence as a negative control (Integrated DNA Technologies) were formulated in water and added to cultured cortical neurons grown on 6-well plates at DIV5 at a final concentration of 10 μM. Neurons were further cultured and treated at DIV7 with vehicle (0.1% DMSO) or the indicated compounds for 72 h. For western blot analysis, neurons were washed once with PBS and then lysed using RIPA buffer (50 mM Tris-HCl pH 8.0, 150 mM NaCl, 1% NP−40, 0.5% Na-deoxycholate, 0.5% SDS) and protease inhibitor cocktail (P8340, MilliporeSigma) on ice.

[5] = molecular target: T1, TOP1 (Homo sapiens, UniProt P11387); test: TOP1-mediated DNA relaxation assay; format: biochemical; conditions: 3 μM topotecan; increasing concentrations of (S)- and (R)-PHA533533; vs DMSO
T1 construct: purchased TopoGEN
T1 sequence (P11387 1-765): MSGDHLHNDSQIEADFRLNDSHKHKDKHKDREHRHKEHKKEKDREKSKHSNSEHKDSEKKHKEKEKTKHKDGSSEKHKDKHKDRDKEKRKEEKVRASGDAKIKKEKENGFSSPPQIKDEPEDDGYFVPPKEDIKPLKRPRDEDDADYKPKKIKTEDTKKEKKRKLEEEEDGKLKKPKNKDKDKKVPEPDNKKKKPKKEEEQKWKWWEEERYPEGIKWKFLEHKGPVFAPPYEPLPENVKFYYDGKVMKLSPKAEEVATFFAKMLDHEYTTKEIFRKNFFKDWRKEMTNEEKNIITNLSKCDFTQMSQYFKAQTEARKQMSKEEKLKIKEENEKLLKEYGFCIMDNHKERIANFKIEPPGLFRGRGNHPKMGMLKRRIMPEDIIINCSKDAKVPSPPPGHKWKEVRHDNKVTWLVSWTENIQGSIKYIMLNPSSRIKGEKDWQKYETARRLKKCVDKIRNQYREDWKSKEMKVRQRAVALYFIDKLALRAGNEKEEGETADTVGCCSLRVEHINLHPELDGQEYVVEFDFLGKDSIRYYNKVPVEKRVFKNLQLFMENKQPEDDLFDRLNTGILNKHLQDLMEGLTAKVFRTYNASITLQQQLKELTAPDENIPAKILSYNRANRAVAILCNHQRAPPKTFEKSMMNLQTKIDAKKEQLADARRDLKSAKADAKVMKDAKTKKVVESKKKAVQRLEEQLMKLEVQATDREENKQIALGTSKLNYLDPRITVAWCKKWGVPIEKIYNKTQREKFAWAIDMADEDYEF
Text: […]. […] […]. […] […]. […] […].
The Pfizer chemogenetic library and PHA533533 derivatives were provided by the Compound Transfer Program (CTP) at Pfizer. Topotecan hydrochloride salt was purchased from Cayman Chemicals (Item No. 14129). […] […]. The Human Topoisomerase I Assay Kit was purchased from TopoGEN and performed according to the manufacturer’s protocols.

EC50 [3] [nM] | SMILES | CC50 at 72 h [1] [nM] | relative quantity of Ube3a-ATS vs DMSO [2] | Emax [3] [%] | capability to unsilence paternal Ube3a (analog test) [3] | UBE3A protein levels vs DMSO [4] | paternal UBE3A-YFP immunofluorescent signal [3] | inhibition of TOP1 catalytic activity to relax supercoiled DNA [5] | relative quantity of Ube3a-ATS vs DMSO ([2]; listed as compound 2)
260 ± 100 | CC(C(=O)Nc1cc(C2CC2)[nH]n1)c1ccc(N2CCCC2)cc1 (racemic) [Compound (±)-4] | 1460 ± 240 | downregulated | 65.7 ± 15.4 | could unsilence paternal Ube3a | significantly increased |  |  | 
 | C[C@@H](C(=O)Nc1cc(C2CC2)[nH]n1)c1ccc(N2CCCC2=O)cc1 [(R)-PHA533533] |  |  |  |  |  | minimal UBE3A-YFP immunofluorescent signal | had no effect on the TOP1 activity | 
140 ± 20 | O=C(Cc1ccc2ccccc2c1)Nc1cc(C2CC2)[nH]n1 [Compound 2] | 570 ± 90 | downregulated | 71.4 ± 7.34 | could unsilence paternal Ube3a |  |  |  | did not reach statistical significance
100 ± 10 | O=C(Cc1ccc(-c2ccccc2)cc1)Nc1cc(C2CC2)[nH]n1 [Compound 3] | 300 ± 30 | downregulated | 43.5 ± 8.24 | could unsilence paternal Ube3a | significantly increased |  |  | 
5300 ± 370 | CC(C(=O)Nc1cc(C2CC2)[nH]n1)c1ccc(N2CCC(O)C2=O)cc1 [Compound (S,R)-5] | 12800 ± 780 | downregulated | 58.3 ± 9.24 | could unsilence paternal Ube3a |  |  |  | 
